Here are results for 35 compounds from PubChem BioAssay (NCI).

What all share (assay): NCI tumour cell line growth inhibition, 48 h
In test [1] the test system is SNB-78 CNS.
The test system of test [2] is M19-MEL melanoma.
Test [3] concerns RXF-631 renal.
Test [4] has as its system NCI/ADR-RES ovarian.
Test [5] deals with MDA-MB-231 breast.
Test [6] concerns MDA-N.
For test [7], the system named is T-47D breast.
In test [8] the test system is MDA-MB-435.
Test [9] relates to PC-3 prostate.

Structures are written as SMILES.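 Interpolation was linear, between the two tested concentrations surrounding the appropriate level; five concentrations were tested over 48 hours in 96-well plates. The concentration for 50% growth inhibition is given as GI50. TGI: concentration producing complete growth inhibition.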

In the case of `O=c1c2cc(Br)ccc2nc(CCl)n1-c1ccc(O)c([N+](=O)[O-])c1`, the TGI in [1] is 50.3 µM; in [2] it was 36.2 µM.

Regarding `O=C(/C=C/c1ccccc1)CC(=O)CCC(=O)Nc1ccc(Cl)cc1`, the TGI in test [1] and in [2] was over 100 µM in each case.

Take `Cc1ccccc1C(=O)N1CCN(C(=O)c2ccccc2C)CC1`: the TGI in test [1], in test [2] and in test [3] was over 100 µM each time.

`CCC(=O)Nc1nc2c(ncn2C2OC(COC(=O)CC)C(OC(=O)CC)C2OC(=O)CC)c(=O)[nH]1` (configuration not stated): the TGI in [1] and in [2] was over 100 µM throughout.

Consider `O=[N+]([O-])c1ccc(-c2ccc(-c3csc(Nc4ccccc4)n3)o2)cc1`, for which the results for the TGI in test [1] and in test [2] were 38.4 µM and over 81.6 µM, respectively.

`COC(=O)C1(C(=O)OC)CC(=O)c2cc3c(cc2-c2c(cc(OC)c(OC)c2OC)C1)OCO3`: the TGI in test [2] and in [3] was over 211 µM each time.

In the case of `CSc1nnc(COc2ccc(Cl)cc2)o1`, the TGI in test [1] and in [2] was over 100 µM each time.

For `Cc1nc(C(N)=S)sc1C(=O)/C=C/c1c(O)ccc2ccccc12`, the TGI in [1] is over 100 µM; in [2], 19 µM; in test [3], over 100 µM.

For `Cc1c2ccccc2cc2ccc3oc([N+](=O)[O-])cc3c12`, the TGI in test [1] and in test [2] was over 100 µM throughout.

As for `COc1ccc(C(=O)NCCN(C)C)c2nc3ccccc3nc12`, the TGI in test [1] is 38.4 µM; in [2], 9.9 µM; in test [3] it was over 100 µM.

Turning to `c1ccc(N2N=C(c3ccco3)CC2c2ccco2)cc1` (configuration not stated), the TGI in test [1] and in test [2] was over 100 µM in each case.

In test [2], `COc1ccc(CN2CCC/C=C/CC(Cl)(Cl)C2=O)cc1` displayed a TGI of 95.2 µM.

As for `NC(=S)NN/C=C(\C=Nc1ccccc1)[N+](=O)[O-]`, in test [2], the TGI was over 100 µM.

`COc1ccc(/C(=N\NC(=S)NN)C(c2ccc(OC)cc2)C2C(=O)Oc3ccccc32)cc1` (configuration not stated): in test [1], the GI50 is over 100 µM and the TGI is over 100 µM. Also, in test [2], the GI50 was over 100 µM and the TGI is over 100 µM.

For `CC(=O)N1CCC2(c3ccccc3N(C(C)=O)C2c2ccc(O)cc2)C1C(=O)O` (configuration not stated), the TGI in [1] and in test [2] was over 100 µM throughout.

For `CCOC(=O)C(NC(=O)c1nc[nH]c1[N+](=O)[O-])C(C)C` (configuration not stated), the TGI in test [2] is over 100 µM.

Take `C[N+](C)(C)CC1CCCCC1O` (configuration not stated): the TGI in [1], in [2] and in [3] was over 100 µM in each case.

`CCOC(=O)NC(=O)c1cn(CCN2CCN(C(=O)CCCCCCCCCCC(=O)N3CCN(CCn4cc(C(=O)NC(=O)OCC)c(=O)[nH]c4=O)CC3)CC2)c(=O)[nH]c1=O` yielded a TGI in test [2] of over 100 µM.

With `Cc1cc(N(CCC#N)CCC#N)ccc1/C=C(\NC(=O)/C=C/c1ccccc1)C(=O)NN`, the TGI in test [4], in [1], in test [5], in test [2], in test [6] and in [7] was over 100 µM in each case. For the same compound, the TGI in test [8] and in [9] was over 100 µM throughout.

As to `CSC(=NCCc1c[nH]c2ccccc12)NC#N`, the TGI in test [1] and in [2] was over 100 µM in each case.

In the case of `CC(C)(C)C(=O)[CH-]C(=O)C(C)(C)C.CC(C)(C)C(=O)[CH-]C(=O)C(C)(C)C.CN(C)c1ccc([O-])cc1.CN(C)c1ccc([O-])cc1.[Ti+4]`, the GI50 in test [1] was over 100 µM; in [2] it was 79.2 µM; in test [3] it was over 100 µM. Further, the TGI in test [1], in test [2] and in [3] was over 100 µM in each case.

On to `O=[N+]([O-])c1ccc(Sc2c3ccccc3nc3cc(Cl)ccc23)cc1`, for which, in test [2], the GI50 was over 100 µM and the TGI is over 100 µM. Also, in test [3], the GI50 is over 100 µM and the TGI was over 100 µM.

For the compound `CN(C)C(=S)/N=c1\ssc(=S)n1Cc1ccncc1`, the TGI was over 100 µM in test [1], 27.8 µM in [2] and 38.4 µM in [3].

For `N/N=C1\C(=O)N(CCc2ccccc2)C(=O)C1C(=O)NCCc1ccccc1` (configuration not stated), the TGI in test [1], in test [2] and in test [3] was over 100 µM each time.

With `CCCCN(CC)CC(C(C)=O)c1c(O)c2ccccc2oc1=O` (configuration not stated), the TGI in [1] and in [2] was over 100 µM each time.

As for `CSC(=S)N/N=C/c1nccc2ccccc12`, the values for the TGI in [1], in test [2] and in test [3] were 63.6 µM, over 33.6 µM and over 82.9 µM, respectively.

As to `C=CC(OCC)(OCC)OCC`, the TGI in [1], in test [2] and in [3] was over 100 µM in each case.

In test [2], `C/C(=N/NC(=O)C[N+](C)(C)C)C(CN(C)C)C(=O)Nc1ccccc1` (configuration not stated) registered a TGI of over 100 µM.

Consider `CSC1=Nc2ccccc2N=C(c2ccc(Cl)cc2)C1`, for which the TGI in test [1] and in test [2] was over 100 µM each time.

Consider `O=C(O)c1ccc(C2C(=O)N[C@@H]3CCC[C@H]23)cc1` (some centres not stated), for which the TGI in test [1] and in test [2] was over 100 µM throughout.

Turning to `c1c[nH]c(CN2CCOCC2)n1`, the TGI in [4], in test [5], in [6], in test [7], in test [8] and in [9] was over 100 µM throughout.

Regarding `O=C(O)[C@H](c1ccccc1)[C@@H](C(=O)O)c1ccccc1`, the TGI in test [4], in test [5], in test [6], in test [7], in test [8] and in test [9] was over 100 µM each time.

For the compound `CCCCN(CCCC)C(=O)/C(CC(=O)c1cccc2ccccc12)=N\NC(=O)c1cc2ccccc2cc1O`, the TGI was 99.7 µM in [1], over 100 µM in test [2] and 70.5 µM in test [3].

As for `Cc1c(C(=O)O)oc2ccc([N+](=O)[O-])cc12`, the TGI in test [1], in [2] and in test [3] was over 100 µM in each case.

Consider `CC(=O)OCC1OC(N2C(=O)C(=O)c3ccccc32)C(OC(C)=O)C(OC(C)=O)C1OC(C)=O` (configuration not stated), for which the TGI in test [2] and in test [3] was over 100 µM in each case.
